Laboratory results published in ChEMBL document CHEMBL5050844 (2019).

Tests used:
[1] = target: E3 ubiquitin-protein ligase CBL-B (Homo sapiens, UniProt Q13191); assay: Inhibition of N-terminal Avi-tagged human CBL-B (36 to 427 residues) incubated with 60 nM Src kinase for 1.5 hrs followed by incubation with fluorescently labeled UbcH5B-Ub for 1 hr and measured by TR-FRET assay; type: single protein
[2] = Induction of anti-CD3 antibodies-stimulated human T cell activation at 1 uM assessed fold increase in CD25 expression measured by ELISA assay; type: functional, T cell line; note: reference of the scale not given here
[3] = Induction of anti-CD3/CD28 antibodies-stimulated human T cell activation at 1 uM assessed fold increase in CD25 expression measured by ELISA assay; type: functional, T cell line
[4] = Induction of anti-CD3/CD28 antibodies-stimulated human T cell activation at 0.3 uM assessed fold increase in CD25 expression measured by ELISA assay; type: functional, T cell line
[5] = Induction of anti-CD3/CD28 antibodies-stimulated human T cell activation at 1 uM assessed fold increase in IL-2 secretion measured by ELISA assay; type: functional, T cell line
[6] = Induction of anti-CD3/CD28 antibodies-stimulated human T cell activation at 0.3 uM assessed fold increase in IL-2 secretion measured by ELISA assay; type: functional, T cell line
[7] = Induction of anti-CD3 antibodies-stimulated human T cell activation at 1 uM assessed fold increase in IL-2 secretion measured by ELISA assay; type: functional, T cell line; note: reference of the scale not given here

Chain of E3 ubiquitin-protein ligase CBL-B (Q13191 whole entry, the tested form may be a part): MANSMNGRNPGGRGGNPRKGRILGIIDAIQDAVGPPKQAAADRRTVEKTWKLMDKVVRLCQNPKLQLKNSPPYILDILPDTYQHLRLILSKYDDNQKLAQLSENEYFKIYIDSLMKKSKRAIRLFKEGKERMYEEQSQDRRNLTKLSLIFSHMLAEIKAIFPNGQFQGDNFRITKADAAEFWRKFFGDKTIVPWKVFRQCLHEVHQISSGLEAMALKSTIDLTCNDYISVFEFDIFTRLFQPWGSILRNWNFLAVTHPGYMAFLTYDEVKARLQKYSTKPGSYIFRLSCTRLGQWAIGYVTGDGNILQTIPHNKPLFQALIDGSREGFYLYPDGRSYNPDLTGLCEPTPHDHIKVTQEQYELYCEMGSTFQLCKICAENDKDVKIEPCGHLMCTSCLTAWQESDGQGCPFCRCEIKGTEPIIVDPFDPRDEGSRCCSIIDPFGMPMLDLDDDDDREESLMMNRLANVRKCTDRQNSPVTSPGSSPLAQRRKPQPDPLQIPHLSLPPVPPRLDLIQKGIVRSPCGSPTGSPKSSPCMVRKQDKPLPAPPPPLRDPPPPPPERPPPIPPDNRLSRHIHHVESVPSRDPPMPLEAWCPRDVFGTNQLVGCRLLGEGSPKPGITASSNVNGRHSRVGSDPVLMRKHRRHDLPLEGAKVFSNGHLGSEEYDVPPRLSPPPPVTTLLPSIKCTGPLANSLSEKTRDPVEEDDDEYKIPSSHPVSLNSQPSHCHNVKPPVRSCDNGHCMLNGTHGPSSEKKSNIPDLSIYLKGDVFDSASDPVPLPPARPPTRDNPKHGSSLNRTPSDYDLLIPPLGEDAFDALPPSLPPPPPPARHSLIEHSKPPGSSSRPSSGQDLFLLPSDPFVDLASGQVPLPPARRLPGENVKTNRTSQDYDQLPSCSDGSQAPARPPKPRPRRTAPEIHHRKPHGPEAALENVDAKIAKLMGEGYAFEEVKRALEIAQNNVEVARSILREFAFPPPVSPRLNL

SMILES | IC50 [1] | fold change (FC) [2] | fold change (FC) [3] | fold change (FC) [4] | fold change (FC) [5] | fold change (FC) [6] | fold change (FC) [7]
CCOc1cc(N2Cc3c(cc([C@@H](C)N4CC[C@H](F)C4)cc3C(F)(F)F)C2=O)cc(C2(Cc3nncn3C)COC2)c1 | < 100 nM | >=1.001 | 1.51 | 1.31 | >=7.5 | >=7.5 | >=0.201
C[C@H](c1cc2c(c(C(F)(F)F)c1)CN(c1cccc(C3(Cc4nncn4C)COC3)c1)C2=O)N1CC(C)(F)C1 | < 100 nM | >=1.001 | 1.51 | 1.51 | >=7.5 | 5 | >=0.201
Cn1cnnc1CC1(c2cccc(NC(=O)c3cc(N4CC(C(F)F)C4)nc(C4CC4)n3)c2)COC1 | < 100 nM | 0.801 | 1.01 | 1.01 | >=7.5 | 2.51 | 0.101
Cn1cnnc1CC1(c2cccc(NC(=O)c3[nH]nc4c3OCCC4)c2)COC1 | < 100 nM | 0.601 | 1.01 | 1.01 | 1.01 | 1.01 | 0.051
Cn1cnnc1[C@@H](F)C1(c2cccc(N3Cc4c(cc(CN5CCC6(CC6)C5)cc4C(F)(F)F)C3=O)c2)COC1 | < 100 nM | >=1.001 | 1.31 | 1.01 | >=7.5 | 5 | 0.101
Cn1cnnc1C[C@@]1(c2cccc(N3Cc4c(cc(CN5CCC6(CC6)C5)cc4C(F)(F)F)C3=O)c2)CCOC1 | < 100 nM | 0.801 | 1.01 | 1.01 | >=7.5 | 2.51 | 0.101
CN1CCN(c2cc3c(c(C(F)(F)F)c2)CN(c2cccc(C4(Cc5nncn5C)COC4)c2)C3=O)CC12CC2 | < 100 nM | >=1.001 | 1.51 | 1.31 | 5 | 2.51 | 0.151
CN1CCN(c2cc3c(c(C(F)(F)F)c2)CN(c2cccc(C4(Cc5nncn5C)COC4)c2)C3=O)C(=O)C1 | < 100 nM | 0.801 | 1.01 | 1.01 | 1.01 | 1.01 | 0.051
Cn1cnnc1CC1(c2cccc(N3Cc4c(cc(N5CC6(CCC6(F)F)C5)cc4C(F)(F)F)C3=O)c2)COC1 | < 100 nM | 0.601 | 1.01 | 1.01 | 2.51 | 1.01 | <=0.05
